The test system of one assay is H460 cancer cells. The assay is described as follows: H460 proliferation assay in the presence of the specific AKR1C3 enzyme inhibitor TH-3021. The assay is classed as cell-based, human. Conditions: AKR1C3 inhibitor TH-3021 at 3 micromolar, added two hours before compound treatment, read-out: IC50 (nM) obtained when the AKR1C3 inhibitor TH-3021 was added. As to the method: (§1) Specifically, exponentially growing cells were seeded at a density of 4×10^3 cells per well in a 96 well plate and incubated at 37° C. in 5% CO2, 95% air and 100% relative humidity for 24 hours prior to addition of test compounds. Compounds were solubilized in 100% DMSO at 200 times the desired final test concentration. At the time of drug addition, compounds were further diluted to 4 times the desired final concentration with complete medium. Aliquots of 50 μl of compound at specified concentrations were added to microtiter wells already containing 150 μl of medium, resulting in the final drug concentration reported. After drug addition, the plates were incubated for an additional 2 hours at 37° C., 5% CO2, 95% air, and 100% relative humidity, then the drug was washed off and fresh medium was added and the plates were incubated for addition 70 hrs at 37° C., 5% CO2, 95% air and 100% relative humidity. At the end of this incubation, the viable cells were quantified using the AlamarBlue assay.
Similarly, in order to further verify that the compounds are activated by human AKR1C3 ([…] family 1 member C3), the effect of some of the compounds on the proliferation of H460 cancer cells was tested in the presence of a specific AKR1C3 enzyme inhibitor (at 3 micromolar concentration). The inhibitor-added compound solution was added to the cell culture two hours before the treatment with the compound. The inhibitor used was compound 36, i.e.,
[drawing 17] (TH-3021) in Flanagan et al., Bioorganic and Medicinal Chemistry (2014), pages 962-977.

The test system of assay [1] is H460 non-small cell lung cancer human tumor cell line. Nature of the assay: In vitro human tumor cell line cytotoxicity (proliferation) assay, H460. Conditions: NCI-H460, H460 cells, 2 hrs compound exposure, wash, additional 70 hrs incubation, AlamarBlue. Format: cell-based. As to the method:
In vitro human tumor cell line cytotoxicity assays.
In vitro proliferation data on the H460 non-small cell lung cancer human tumor cell line is reported below in the compound table.
as §1

Where two headings read alike, the source gives them in different places.

From patent US12595275B2, “Fluorine-containing compound and anti-cancer medical use thereof” (ASCENTAWITS PHARMACEUTICALS, LTD., priority 2019, dated 2026) come the findings set out here.

The IC50 is the concentration that gives 50% inhibition.

In the case of `O=[N+]([O-])c1ccc(COc2c(F)cc(COP(=O)(N3CC3)N3CC3)cc2F)cc1Oc1ccc(Cl)nc1` [Compound No. 5], the half-inhibitory concentration (IC50) with H460 cancer cells is 228 nM; in assay [1], 5.87 nM.
As to `Cc1nc2ccc(Oc3cc(C(OP(=O)(N4CC4)N4CC4)C(F)(F)F)ccc3[N+](=O)[O-])cc2s1` (stereo not shown) [Compound No. 42], the half-maximal inhibitory concentration (IC50) in the assay with H460 cancer cells is greater than 1000 nM; in assay [1], 29.3 nM.
Regarding `O=C(c1cccc(Oc2cc(C(OP(=O)(N3CC3)N3CC3)C(F)(F)F)ccc2[N+](=O)[O-])c1)N1CCC(C(F)(F)F)CC1` (stereo not shown) [Compound No. 25], the IC50 with H460 cancer cells amounted to 179 nM; in assay [1], 1.86 nM.
With `O=[N+]([O-])c1ccc(C(OP(=O)(N2CC2)N2CC2)C(F)(F)F)cc1Oc1ccc(OC(F)(F)F)cc1` (stereo not shown) [Compound No. 11], the figures for the concentration for half-maximal inhibition (IC50) (in the assay on H460 cancer cells; in assay [1]) were greater than 1000 nM and 137 nM, respectively.
For `O=[N+]([O-])c1ccc(C(OP(=O)(N2CC2)N2CC2)C(F)(F)F)cc1Oc1ccc(-c2ccc(F)cc2F)c(F)c1` (stereo not shown) [Compound No. 17], the values for the 50% inhibitory concentration (IC50) (in the assay on H460 cancer cells; in assay [1]) were greater than 1000 nM and 7.26 nM, respectively.
Turning to `O=[N+]([O-])c1ccc(C(OP(=O)(N2CC2)N2CC2)C(F)(F)F)cc1Oc1ccc(C(F)(F)F)cc1` (stereo not shown) [Compound No. 7], the IC50 is greater than 1000 nM in the assay on H460 cancer cells and 25.6 nM in assay [1].
Take `O=C(c1ccc(Oc2cc(C(OP(=O)(N3CC3)N3CC3)C(F)(F)F)ccc2[N+](=O)[O-])cc1)N1CCC(c2ccccc2)CC1` (stereo not shown) [Compound No. 30]: the IC50 is greater than 1000 nM with H460 cancer cells and 79.9 nM in assay [1].
Turning to `CN(C)C(=O)c1cccc(Oc2cc(COc3c(F)c(F)c(COP(=O)(N4CC4)N4CC4)c(F)c3F)ccc2[N+](=O)[O-])c1` [Compound No. 3], the IC50 was greater than 1000 nM in the assay on H460 cancer cells and 0.417 nM in assay [1].
For `CC1(C)CCN(C(=O)c2cccc(Oc3cc(C(OP(=O)(N4CC4)N4CC4)C(F)(F)F)ccc3[N+](=O)[O-])c2)CC1` (stereo not shown) [Compound No. 24], in that order: greater than 1000 nM and 4.33 nM.
As for `O=[N+]([O-])c1ccc(C(OP(=O)(N2CC2)N2CC2)C(F)(F)F)cc1Oc1cnc2ccccc2c1` (stereo not shown) [Compound No. 13], the IC50 in the assay with H460 cancer cells is greater than 1000 nM; in assay [1], 42.2 nM.
Regarding `O=C(c1cccc(Oc2cc(COc3c(F)cc(COP(=O)(N4CC4)N4CC4)cc3F)ccc2[N+](=O)[O-])c1)N1CC(F)(F)C1` [Compound No. 38], the IC50 was found to be 267 nM in the assay with H460 cancer cells and 5.53 nM in assay [1].
With `O=C(c1cccc(Oc2cc(C(OP(=O)(N3CC3)N3CC3)C(F)(F)F)ccc2[N+](=O)[O-])c1)N1CCC(O)CC1` (stereo not shown) [Compound No. 26], the IC50 turned out to be 175 nM in the assay with H460 cancer cells and 1.2 nM in assay [1].
For the compound `O=[N+]([O-])c1ccc(C(OP(=O)(N2CC2)N2CC2)C(F)(F)F)cc1Oc1ccc(-c2ccc(F)cc2)c(F)c1` (stereo not shown) [Compound No. 16], the IC50 in the assay on H460 cancer cells was greater than 1000 nM; in assay [1] it was 6.78 nM.
For the compound `O=[N+]([O-])c1ccc(C(OP(=O)(N2CC2)N2CC2)C(F)(F)F)cc1Oc1ccc(-c2ccc(F)cn2)cc1` (stereo not shown) [Compound No. 20], the IC50 in the assay on H460 cancer cells was greater than 1000 nM; in assay [1], 46.8 nM.
For `CN(C)C(=O)c1ccc(Oc2cc(COc3c(F)cc(COP(=O)(N4CC4)N4CC4)cc3F)ccc2[N+](=O)[O-])cc1` [Compound No. 1], in that order: 460 nM and 1.97 nM.
For `CN(C)C(=O)c1ccc(Oc2cc(COc3c(F)c(F)c(COP(=O)(N4CC4)N4CC4)c(F)c3F)ccc2[N+](=O)[O-])cc1` [Compound No. 2], in that order: greater than 1000 nM and 0.352 nM.
As for `O=[N+]([O-])c1ccc(C(OP(=O)(N2CC2)N2CC2)C(F)(F)F)cc1Oc1ccc(-c2ccc(F)cc2F)cc1` (stereo not shown) [Compound No. 15], the 50% inhibitory concentration (IC50) was greater than 1000 nM in the assay on H460 cancer cells (Homo sapiens, NCI-H460, 2 h) and 11.4 nM in assay [1].
With `O=C(c1cccc(Oc2cc(C(OP(=O)(N3CC3)N3CC3)C(F)(F)F)ccc2[N+](=O)[O-])c1)N1CCCCC1` (stereo not shown) [Compound No. 21], the IC50 with H460 cancer cells came out at 176 nM; in assay [1], 6.98 nM.
For `O=[N+]([O-])c1ccc(C(OP(=O)(N2CC2)N2CC2)C(F)(F)F)cc1Oc1ccc(-c2ccc(C(F)(F)F)cc2)nc1` (stereo not shown) [Compound No. 19], the concentration for half-maximal inhibition (IC50) in the assay with H460 cancer cells was greater than 1000 nM; in assay [1] it was 313 nM.
Regarding `O=[N+]([O-])c1ccc(COc2c(F)c(F)c(COP(=O)(N3CC3)N3CC3)c(F)c2F)cc1Oc1ccc(C(F)(F)F)cc1` [Compound No. 8], the results for the concentration for half-maximal inhibition (IC50) (in the assay with H460 cancer cells; in assay [1]) were greater than 1000 nM and 0.526 nM, respectively.
With `O=C(c1cccc(Oc2cc(C(OP(=O)(N3CC3)N3CC3)C(F)(F)F)ccc2[N+](=O)[O-])c1)N1CCC(F)(F)CC1` (stereo not shown) [Compound No. 22], the figures for the IC50 (with H460 cancer cells; in assay [1]) were 139 nM and 1.37 nM, respectively.
As for `N#Cc1cccc(Oc2cc(COc3c(F)cc(COP(=O)(N4CC4)N4CC4)cc3F)ccc2[N+](=O)[O-])c1` [Compound No. 39], the IC50 in the assay with H460 cancer cells worked out at 137 nM; in assay [1] it was 7.79 nM.
With `O=[N+]([O-])c1ccc(C(OP(=O)(N2CC2)N2CC2)C(F)(F)F)cc1Oc1ccc(C2CCC(F)(F)CC2)cc1` (stereo not shown) [Compound No. 49], the half-inhibitory concentration (IC50) in the assay with H460 cancer cells was greater than 1000 nM; in assay [1], 9.61 nM.
